What was measured:
c-Myc = assay: Western blot of treated HNC cells; format: cell-based, human; conditions: Cal27 and JHU029 cells, 48 hr; 2% BME or 10 µg/mL M-I
Procedure: (§1) Figure 3 Momordicine-I inhibits downstream of c-Met signaling in HNC cells. Representative Western blot image for c-Myc, survivin and cyclin D1 expression in Cal27 and JHU029 cells with treatment of BME or M-I. The same membrane used in panel A was reprobed. Actin was used as internal control. Quantitative representation of Western blot band intensities (right panel). Small bar indicates standard error (*** p < 0.001).
(§2) Bitter melon extract (BME) was prepared from the Chinese variety of young bitter melons (raw and green) as described previously. Briefly, BME was prepared by aqueous extraction from whole fruit without seeds using a household juicer at room temperature with subsequent centrifugation at 15000× g at 4 °C for 30 min. BME was stored at −80 °C for further analysis. Cal27 and JHU029 cells were treated with 2% BME and JHU022 cells were treated with 3% BME as described previously. The momordicine-I (>98% pure) was purchased from Chemfaces (Cat. No.: CFN92076; Hubei, China). The powder was dissolved in DMSO and added to the cells at different concentrations. Based on cytotoxicity data, Cal27 and JHU029 cells were treated with 10 µg/mL and JHU022 cells were treated with 20 µg/mL dose of M-I and incubated for 48 hr for further experiments. All the experiments were done at least in triplicate. […]

cyclin D1 = assay: Western blot of treated HNC cells; format: cell-based, human; conditions: Cal27 and JHU029 cells, 48 hr; 2% BME or 10 µg/mL M-I
Procedure: as §1, §2

Cal27 xenograft = assay: Tumorigenicity assay, HNC xenograft model; format: in vivo, BALB/c athymic nude mice
Procedure: Figure 7 Therapeutic effect of momordicine-I in Cal27 xenograft model. Cal27 cells (1.5 × 10^6) cells were injected subcutaneously into the flank of nude mice. After formation of palpable tumor, mice were randomly divided into three groups (n = 5): Control (without any treatment), BME group (30% BME through drinking water) and M-I group (30 mg/kg IP, once in a day and every day). (A) Body weight was measured in control and treated mice. (B) Tumors were measured using a slide caliper and tumor volumes were calculated. Arrow indicates starting point BME/ M-I treatment. (C,D) Control or treated tumor lysates were subjected to Western blot analysis for c-Met and c-Myc expression using specific antibodies and representative bands are shown. The blot was reprobed with an antibody to Actin for normalization. […] Small bar indicates standard error (*, p < 0.05; **, p < 0.01; *** p < 0.001).
(§3) JHU029 or Cal27 cells (1.5 × 10^6) containing 40% Matrigel were injected subcutaneously into the flank of BALB/c athymic nude mice (7–8 weeks old). When the palpable tumor was developed (>60 mm^3), mice were divided into three groups randomly, 5 mice in each group. The control group was without any treatment. The BME group received 30% (v/v) BME through drinking water. M-I group received 30 mg/kg dose of M-I once in day, every day. Body weight was monitored, and tumor size was measured using a slide caliper and volume was calculated using the formula ½ L × W^2. After animal sacrifice tumors were dissected out and snap frozen in liquid nitrogen for further analysis. All the animal experiments were carried out in accordance NIH guidelines, following a protocol approved (1017) by the Institutional Animal Care and Use Committee (IACUC) of Saint Louis University.

JHU029 xenograft = assay: Tumorigenicity assay, HNC xenograft model; format: in vivo, BALB/c athymic nude mice
Procedure: Figure 6 Therapeutic effect of momordicine-I in JHU029 xenograft model. JHU029 cells (1.5 × 10^6) cells were injected subcutaneously into the flank of nude mice. After the formation of a palpable tumor, mice were randomly divided into three groups (n = 5): Control (without any treatment), BME group (30% BME through drinking water) and M-I group (30 mg/kg IP, once in a day and every day). (A) Body weight was measured in control and treated mice. (B) Representative images of tumors in control and treatment groups. (C) Tumors were measured using a slide caliper and tumor volumes were calculated. Arrow indicates starting point BME/M-I treatment. (D) Control or treated tumor lysates were subjected to Western blot analysis for c-Met and c-Myc expression using specific antibodies and representative bands are shown. The blot was reprobed with an antibody to Actin for normalization. […] Small bar indicates standard error (*, p < 0.05; *** p < 0.001).
as §3

rat cardiac fibroblasts = conditions: cited from earlier work
[1] = Cal27 xenograft tumor lysates, Western blot, vs control
[2] = JHU029 xenograft tumor lysates, Western blot, vs untreated control tumors

Structure (SMILES): CC(C)=CC(O)CC(C)[C@H]1CC[C@@]2(C)[C@@H]3[C@@H](O)C=C4[C@@H](CC[C@H](O)C4(C)C)[C@]3(C=O)CC[C@]12C (stereo partly drawn) [M-I, (3S, 7S, 8S, 9R, 10R, 13R, 14S, 17R) 3,7-dihydroxy-17-(4-hydroxy-6-methylhept-5-en-2-yl)-4,4,13,14-tetramethyl-2,3,7,8,10,11, 12,15,16,17-decahydro-1H-cyclopenta[a]phenanthrene-9-carbaldehyde]
- c-Myc expression (c-Myc): significant inhibition
- cyclin D1 expression (cyclin D1): significant inhibition
- c-Met expression in tumors (Cal27 xenograft; [1]): significant reduction
- c-Myc expression in tumors (Cal27 xenograft; [1]): significant reduction
- reduction of tumor growth (Cal27 xenograft; Cal27 xenograft, nude mice, M-I 30 mg/kg IP once a day or 30% BME in drinking water): ~ 50%
- body weight (Cal27 xenograft; Cal27 xenograft, throughout the experiment): increasing body weight
- c-Met expression in tumors (JHU029 xenograft; [2]): significant reduction
- c-Myc expression in tumors (JHU029 xenograft; [2]): significant reduction
- tumor growth reduction, M-I compared with BME (JHU029 xenograft; JHU029 xenograft, nude mice, M-I 30 mg/kg IP once a day): better effect
- tumor volume (JHU029 xenograft; JHU029 xenograft, nude mice, M-I 30 mg/kg IP once a day or 30% BME in drinking water, to day 32, vs untreated control): significantly reduced
- sudden drop in body weight (JHU029 xenograft; JHU029 xenograft, three out of five mice on Day 20, weight gained back, M-I 30 mg/kg IP once a day): ~ 10%
- effect on high-glucose-induced cell proliferation and collagen synthesis (rat cardiac fibroblasts): inhibitory effects

Source: paper PMC8003975 (Cancers, 2021)
